Where a name gives a salt, the structure may show the parent alone.
Experiments:
Format in all cases: cell-based
[1] = test system: Klebsiella pneumoniae XNWB 0006; assay: MIC assay of test compounds combined with ceftazidime (8 μg/mL); details: ceftazidime 8 μg/mL fixed
Summary of the method: (§1)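 MIC values are the lowest concentrations of test compound that inhibited visible growth, read per CLSI after 16-20 h at 35±2 °C in CAMHB microdilution plates with the companion antibiotic held constant. Bacteria came from TSA cultures adjusted to OD600 0.1-0.15 and diluted 300-fold.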

[2] = test system: Pseudomonas aeruginosa XNWB 0008; assay: as above; details: ceftazidime 8 μg/mL fixed
Summary of the method: as §1

[3] = test system: Klebsiella pneumoniae XNWB 0004; assay: as above; details: ceftazidime 8 μg/mL fixed
Summary of the method: as §1

[4] = test system: Klebsiella pneumoniae XNWB 0002; assay: as above; details: ceftazidime 8 μg/mL fixed
Summary of the method: as §1

[5] = test system: Klebsiella pneumoniae XNWB 0001; assay: as above; details: ceftazidime 8 μg/mL fixed
Summary of the method: as §1

[6] = test system: Klebsiella pneumoniae XNWB 0005; assay: as above; details: ceftazidime 8 μg/mL fixed
Summary of the method: as §1

[7] = test system: Klebsiella pneumoniae XNWB 0003; assay: as above; details: ceftazidime 8 μg/mL fixed
Summary of the method: as §1

[8] = test system: Acinetobacter baumannii XNWB 0007; assay: as above; details: ceftazidime 8 μg/mL fixed
Summary of the method: as §1

[9] = test system: Klebsiella pneumoniae XNWB 0006; assay: MIC assay of test compounds combined with imipenem (4 μg/mL); details: imipenem 4 μg/mL fixed
Summary of the method: as §1

[10] = test system: Pseudomonas aeruginosa XNWB 0008; assay: as above; details: imipenem 4 μg/mL fixed
Summary of the method: as §1

[11] = test system: Klebsiella pneumoniae XNWB 0004; assay: as above; details: imipenem 4 μg/mL fixed
Summary of the method: as §1

[12] = test system: Klebsiella pneumoniae XNWB 0002; assay: as above; details: imipenem 4 μg/mL fixed
Summary of the method: as §1

[13] = test system: Klebsiella pneumoniae XNWB 0001; assay: as above; details: imipenem 4 μg/mL fixed
Summary of the method: as §1

[14] = test system: Klebsiella pneumoniae XNWB 0005; assay: as above; details: imipenem 4 μg/mL fixed
Summary of the method: as §1

[15] = test system: Klebsiella pneumoniae XNWB 0003; assay: as above; details: imipenem 4 μg/mL fixed
Summary of the method: as §1

[16] = test system: Acinetobacter baumannii XNWB 0007; assay: as above; details: imipenem 4 μg/mL fixed
Summary of the method: as §1

| SMILES | The minimum concentration of test compounds combined with ceftazidime (8 μg/mL) for bacteriostasis [1] | The minimum concentration of test compounds combined with ceftazidime (8 μg/mL) for bacteriostasis [2] | The minimum concentration of test compounds combined with ceftazidime (8 μg/mL) for bacteriostasis [3] | The minimum concentration of test compounds combined with ceftazidime (8 μg/mL) for bacteriostasis [4] | The minimum concentration of test compounds combined with ceftazidime (8 μg/mL) for bacteriostasis [5] | The minimum concentration of test compounds combined with ceftazidime (8 μg/mL) for bacteriostasis [6] | The minimum concentration of test compounds combined with ceftazidime (8 μg/mL) for bacteriostasis [7] | The minimum concentration of test compounds combined with ceftazidime (8 μg/mL) for bacteriostasis [8] | The minimum concentration of test compounds combined with imipenem (4 μg/mL) for bacteriostasis [9] | The minimum concentration of test compounds combined with imipenem (4 μg/mL) for bacteriostasis [10] | The minimum concentration of test compounds combined with imipenem (4 μg/mL) for bacteriostasis [11] | The minimum concentration of test compounds combined with imipenem (4 μg/mL) for bacteriostasis [12] | The minimum concentration of test compounds combined with imipenem (4 μg/mL) for bacteriostasis [13] | The minimum concentration of test compounds combined with imipenem (4 μg/mL) for bacteriostasis [14] | The minimum concentration of test compounds combined with imipenem (4 μg/mL) for bacteriostasis [15] | The minimum concentration of test compounds combined with imipenem (4 μg/mL) for bacteriostasis [16] |
| --- | --- | --- | --- | --- | --- | --- | --- | --- | --- | --- | --- | --- | --- | --- | --- | --- |
| N[C@H]1C[C@@H](c2nnc([C@@H]3CC4(CC4)[C@@H]4CN3C(=O)N4OS(=O)(=O)O)o2)C1 [Example 15, (1R,4S)-4-(5-((1S,3R)-3-aminocyclobutyl)-1,3,4-oxadiazol-2-yl)-6-oxo-5,7-diazaspiro [bicyclo[3.2.1]octane-2,1′-cyclopropan]-7-yl sulfate] | A (A: <8 μg/mL) | C (C: 16-128 μg/mL) | B (B: 8-16 μg/mL) | A (A: <8 μg/mL) | A (A: <8 μg/mL) | A (A: <8 μg/mL) | A (A: <8 μg/mL) | C (C: 16-128 μg/mL) | A (A: <8 μg/mL) | B (B: 8-16 μg/mL) | A (A: <8 μg/mL) | A (A: <8 μg/mL) | A (A: <8 μg/mL) | A (A: <8 μg/mL) | A (A: <8 μg/mL) | C (C: 16-128 μg/mL) |
| N[C@H]1C[C@H](c2nnc([C@@H]3CC4(CC4)[C@@H]4CN3C(=O)N4OS(=O)(=O)O)o2)C1 [Example 16] | A (A: <8 μg/mL) | B (B: 8-16 μg/mL) | B (B: 8-16 μg/mL) | A (A: <8 μg/mL) | A (A: <8 μg/mL) | A (A: <8 μg/mL) | A (A: <8 μg/mL) | C (C: 16-128 μg/mL) | A (A: <8 μg/mL) | A (A: <8 μg/mL) | A (A: <8 μg/mL) | A (A: <8 μg/mL) | A (A: <8 μg/mL) | A (A: <8 μg/mL) | A (A: <8 μg/mL) | B (B: 8-16 μg/mL) |
| N[C@H]1CC[C@@H](c2nnc([C@@H]3CC4(CC4)[C@@H]4CN3C(=O)N4OS(=O)(=O)O)o2)C1 [Example 17, (1R,4S)-4-(5-((1R,3S)-3-aminocyclopentyl)-1,3,4-oxadiazol-2-yl)-6-oxo-5,7-diazaspiro [bicyclo[3.2.1]octane-2,1′-cyclopropan]-7-yl sulfate] | A (A: <8 μg/mL) | B (B: 8-16 μg/mL) | A (A: <8 μg/mL) | A (A: <8 μg/mL) | A (A: <8 μg/mL) | A (A: <8 μg/mL) | A (A: <8 μg/mL) | C (C: 16-128 μg/mL) | A (A: <8 μg/mL) | A (A: <8 μg/mL) | A (A: <8 μg/mL) | A (A: <8 μg/mL) | A (A: <8 μg/mL) | A (A: <8 μg/mL) | A (A: <8 μg/mL) | B (B: 8-16 μg/mL) |
| N[C@H]1C[C@H](Cc2nnc([C@@H]3CC4(CC4)[C@@H]4CN3C(=O)N4OS(=O)(=O)O)o2)C1 [Example 19, (1R,4S)-4-(5-(((1R,3R)-3-aminocyclobutyl)methyl)-1,3,4-oxadiazol-2-yl)-6-oxo-5,7-diazaspiro[bicyclo[3.2.1]octane-2,1′-cyclopropan]-7-yl sulfate] | A (A: <8 μg/mL) | B (B: 8-16 μg/mL) | A (A: <8 μg/mL) | A (A: <8 μg/mL) | A (A: <8 μg/mL) | A (A: <8 μg/mL) | A (A: <8 μg/mL) | C (C: 16-128 μg/mL) | A (A: <8 μg/mL) | B (B: 8-16 μg/mL) | A (A: <8 μg/mL) | A (A: <8 μg/mL) | A (A: <8 μg/mL) | A (A: <8 μg/mL) | A (A: <8 μg/mL) | B (B: 8-16 μg/mL) |
| N[C@H]1C[C@H](Cc2nnc([C@@H]3CC4(CC4)[C@@H]4CN3C(=O)N4OS(=O)(=O)O)o2)C1 [Example 20, (1R,4S)-4-(5-(((1S,3S)-3-aminocyclobutyl)methyl)-1,3,4-oxadiazol-2-yl)-6-oxo-5,7-diazaspiro[bicyclo[3.2.1]octane-2,1′-cyclopropan]-7-yl sulfate] | A (A: <8 μg/mL) | B (B: 8-16 μg/mL) | A (A: <8 μg/mL) | A (A: <8 μg/mL) | A (A: <8 μg/mL) | A (A: <8 μg/mL) | A (A: <8 μg/mL) | C (C: 16-128 μg/mL) | A (A: <8 μg/mL) | A (A: <8 μg/mL) | A (A: <8 μg/mL) | A (A: <8 μg/mL) | A (A: <8 μg/mL) | A (A: <8 μg/mL) | A (A: <8 μg/mL) | B (B: 8-16 μg/mL) |

— patent US11078202B2, “β-lactamase inhibitor and use thereof” (priority 2018, dated 2021)
